Measured values: paper PMC8008885 (Journal of Enzyme Inhibition and Medicinal Chemistry, 2021)

Test system: H3K9me3 occupancy in promoter regions
Assay: H3K9me3-ChIP sequencing of striatal tissue of YAC128 mice
Type: in vivo, mouse
Conditions: for Fold(YACEi/YAC) H3K9me3 ChIP occupancy: APQ-treated YAC vs YAC mice striatum
Description: ChIP for H3K9me3 binding to DNA was performed using a CHIP assay kit (Santa Cruz, Dallas, TX) as described previously[21]^,[28]. Striatal tissues from WT, vehicle treated YAC128, and APQ-treated YAC128 mice were crossed-linked with 1% formaldehyde for 20 min at room temperature. Lysates were sonicated for 30 s six times using a Bioruptor (Diagenode Inc., Denville, NJ). After centrifugation, the supernatant was diluted in CHIP dilution buffer and incubated overnight at 4 °C with anti-H3K9me3 antibody. Immune complexes were recovered by the addition of 60 µl of salmon sperm DNA/protein A agarose-50% slurry and incubation at 4 °C for 2 h with rotation. Beads were pelleted and washed with low and high salt buffer followed by LiCl buffer (x3). Immune complexes were eluted by incubation with 500 µl of fresh elution buffer (1% SDS, 0.1 M NaHCO3) and 20 µl of 5 M NaCl. DNA was cleaned by the addition of 500 mM EDTA, 1 M Tris, and proteinase K at 66 °C for 4 h. The DNA solution was extracted with a phenol/chloroform/isoamyl alcohol mixture to remove protein contaminants, followed by precipitation with 100% ethanol. After precipitation, the pellet was washed with 70% ethanol and dissolved in 20 µl DW.
The Model-based Analysis of ChIP-Seq algorithm (MACS; v. 1.4.2) was used to identify regions of H3K9me3 enrichment with the default parameters. The peaks that pass a Poisson p values threshold of 0.1 were used for further analyses[28]^,[42]. In order to obtain reliable regions of enrichment, the regions detected in more than two samples were selected and aligned to define the consensus regions using DiffBind R package (v. 2.4.8)[43]. The reads in the consensus regions were counted and DESeq2 was applied to identify DMRs[44]. The DMRs were defined as p values of ≤.05 and only DMRs in promoter region (≤3 K from transcription start site) were selected.
Among the read peaks, a total of H3K9me3-enriched 71735 sites were commonly detected using MACS in WT, vehicle-treated YAC128, and APQ-treated YAC128 mice (using DiffBind R package). The reads were re-counted in the 71,735 sites (using DESeq2) and the H3K9me3-enriched sites in promoter region (≤3 K), with p values ≤.01 were selected. Then the H3K9me3-enriched sites with 1.5-fold higher in vehicle-treated YAC128 compared to WT and 1.5-fold lower in vehicle-treated YAC128 compared to APQ-treated YAC128 were finally selected.

Compound: C=CCOc1cccc2nc(N3CCCC3)ccc12 [APQ, 5-allyloxy-2-(pyrrolidin-1-yl)quinoline]
- Fold(YACEi/YAC) (H3K9me3 ChIP peak chrX_13041660_13042117, 5730405O15Rik, Promoter (<=1kb)): -3.61
- Fold(YACEi/YAC) (H3K9me3 ChIP peak chrX_20364227_20364518, Rp2, Promoter (<=1kb)): -2.41
- Fold(YACEi/YAC) (H3K9me3 ChIP peak chrX_20656130_20656390, Uba1, Promoter (1-2kb)): -3.37
- Fold(YACEi/YAC) (H3K9me3 ChIP peak chrX_20953229_20953500, Elk1, Promoter (2-3kb)): -2.86
- Fold(YACEi/YAC) (H3K9me3 ChIP peak chrX_21482622_21482887, Agtr2, Promoter (1-2kb)): -3.76
- Fold(YACEi/YAC) (H3K9me3 ChIP peak chrX_51205773_51206072, Mbnl3, Promoter (<=1kb)): -4.38
- Fold(YACEi/YAC) (H3K9me3 ChIP peak chrX_52575414_52575585, A630012P03Rik, Promoter (<=1kb)): -2.24
- Fold(YACEi/YAC) (H3K9me3 ChIP peak chrX_53059727_53060393, C430049B03Rik, Promoter (2-3kb)): -2.78
- Fold(YACEi/YAC) (H3K9me3 ChIP peak chrX_55223440_55223928, Slxl1, Promoter (2-3kb)): -3.59
- Fold(YACEi/YAC) (H3K9me3 ChIP peak chrX_56214992_56215323, Gm773, Promoter (2-3kb)): -3.3
- Fold(YACEi/YAC) (H3K9me3 ChIP peak chrX_56345445_56345878, Zfp449, Promoter (<=1kb)): -3.19
- Fold(YACEi/YAC) (H3K9me3 ChIP peak chrX_56823574_56823879, Map7d3, Promoter (1-2kb)): -4.1
- Fold(YACEi/YAC) (H3K9me3 ChIP peak chrX_57211052_57211422, Cd40lg, Promoter (<=1kb)): -3.71
- Fold(YACEi/YAC) (H3K9me3 ChIP peak chrX_59587905_59588513, Fgf13, Promoter (2-3kb)): -4.9
- Fold(YACEi/YAC) (H3K9me3 ChIP peak chrX_62280858_62281466, 4933402E13Rik, Promoter (2-3kb)): -2.07
- Fold(YACEi/YAC) (H3K9me3 ChIP peak chrX_66814240_66814775, Mir470, Promoter (<=1kb)): -2.86
- Fold(YACEi/YAC) (H3K9me3 ChIP peak chrX_68010275_68010563, Mir509, Promoter (<=1kb)): -3.86
- Fold(YACEi/YAC) (H3K9me3 ChIP peak chrX_72985743_72986276, Zfp185, Promoter (1-2kb)): -2.91
- Fold(YACEi/YAC) (H3K9me3 ChIP peak chrX_74085947_74086310, Mecp2, Promoter (<=1kb)): -3.17
- Fold(YACEi/YAC) (H3K9me3 ChIP peak chrX_74254068_74254967, Emd, Promoter (<=1kb)): -2.9
- Fold(YACEi/YAC) (H3K9me3 ChIP peak chrX_100570155_100570557, Awat1, Promoter (1-2kb)): -2.24
- Fold(YACEi/YAC) (H3K9me3 ChIP peak chrX_100595739_100596091, P2ry4, Promoter (<=1kb)): -2.74
- Fold(YACEi/YAC) (H3K9me3 ChIP peak chrX_103413658_103414114, Tsx, Promoter (<=1kb)): -2.74
- Fold(YACEi/YAC) (H3K9me3 ChIP peak chrX_112599521_112600132, Zfp711, Promoter (<=1kb)): -3.8
- Fold(YACEi/YAC) (H3K9me3 ChIP peak chrX_113186036_113186428, Chm, Promoter (<=1kb)): -3.29
- Fold(YACEi/YAC) (H3K9me3 ChIP peak chrX_120315318_120315582, H2afb3, Promoter (2-3kb)): -3.46
- Fold(YACEi/YAC) (H3K9me3 ChIP peak chrX_120316028_120316808, H2afb3, Promoter (2-3kb)): -3.74
- Fold(YACEi/YAC) (H3K9me3 ChIP peak chrX_123101642_123102142, Cldn34c1, Promoter (1-2kb)): -3.6
- Fold(YACEi/YAC) (H3K9me3 ChIP peak chrX_134057860_134058275, Cstf2, Promoter (<=1kb)): -2.34
- Fold(YACEi/YAC) (H3K9me3 ChIP peak chrX_134162152_134162880, Xkrx, Promoter (<=1kb)): -2.18
- Fold(YACEi/YAC) (H3K9me3 ChIP peak chrX_134757222_134757422, Mir7093, Promoter (<=1kb)): -2.8
- Fold(YACEi/YAC) (H3K9me3 ChIP peak chrX_142294260_142294634, Gm5643, Promoter (2-3kb)): -2.73
- Fold(YACEi/YAC) (H3K9me3 ChIP peak chrX_142390366_142390928, Acsl4, Promoter (<=1kb)): -2.3
- Fold(YACEi/YAC) (H3K9me3 ChIP peak chrX_150550381_150550648, Mir3620, Promoter (2-3kb)): -2.24
- Fold(YACEi/YAC) (H3K9me3 ChIP peak chrX_152231158_152231359, Kdm5c, Promoter (1-2kb)): -3.16
- Fold(YACEi/YAC) (H3K9me3 ChIP peak chrX_152560343_152560717, Cldn34a, Promoter (2-3kb)): -4.14
- Fold(YACEi/YAC) (H3K9me3 ChIP peak chrX_152562252_152562894, Cldn34a, Promoter (<=1kb)): -2.56
- Fold(YACEi/YAC) (H3K9me3 ChIP peak chrX_153139912_153140739, Rragb, Promoter (<=1kb)): -2.81
- Fold(YACEi/YAC) (H3K9me3 ChIP peak chrX_158043367_158043944, Cnksr2, Promoter (<=1kb)): -2.16
- Fold(YACEi/YAC) (H3K9me3 ChIP peak chrX_159623974_159624438, Sh3kbp1, Promoter (2-3kb)): -3.85
- Fold(YACEi/YAC) (H3K9me3 ChIP peak chrX_159987543_159987820, Map3k15, Promoter (<=1kb)): -3.61
- Fold(YACEi/YAC) (H3K9me3 ChIP peak chrX_161115587_161115938, Scml2, Promoter (1-2kb)): -2.64
- Fold(YACEi/YAC) (H3K9me3 ChIP peak chrX_162760032_162760397, Rbbp7, Promoter (<=1kb)): -3.13
- Fold(YACEi/YAC) (H3K9me3 ChIP peak chrX_166236123_166236395, Gpm6b, Promoter (2-3kb)): -4.18
- Fold(YACEi/YAC) (H3K9me3 ChIP peak chrX_166439947_166441101, Ofd1, Promoter (<=1kb)): -2.41
- Fold(YACEi/YAC) (H3K9me3 ChIP peak chrX_166482184_166482633, Rab9, Promoter (2-3kb)): -2.11
- Fold(YACEi/YAC) (H3K9me3 ChIP peak chrX_167266371_167266766, Tlr8, Promoter (2-3kb)): -3.38
- Fold(YACEi/YAC) (H3K9me3 ChIP peak chrX_169321353_169321792, Hccs, Promoter (<=1kb)): -2.43
- Fold(YACEi/YAC) H3K9me3 ChIP occupancy (Hsf3, Promoter (<=1kb), chrX_96456335_96456839): -2.88
- Fold(YACEi/YAC) H3K9me3 ChIP occupancy (Mageb18, Promoter (1-2kb), chrX_92601496_92601857): -2.64
- Fold(YACEi/YAC) H3K9me3 ChIP occupancy (Prkx, Promoter (2-3kb), chrX_77798133_77798638): -2.48
- Fold(YACEi/YAC) H3K9me3 ChIP occupancy (Rbm3, Promoter (1-2kb), chrX_8147480_8147724): -2.71
- Fold(YACEi/YAC) H3K9me3 ChIP occupancy (Ssxb3, Promoter (2-3kb), chrX_8592171_8592736): -2.75
- Fold(YACEi/YAC) H3K9me3 ChIP occupancy (Suv39h1, Promoter (1-2kb), chrX_8076427_8076637): -2.8
- Fold(YACEi/YAC) H3K9me3 ChIP occupancy (Wdr45, Promoter (1-2kb), chrX_7720185_7720585): -3.17
